From patent US10557124B2, “Compositions and methods for obtaining stem cell derived lung tissue, and related uses thereof” (The Regents of the University of Michigan, priority 2015, dated 2020)

Key:
Assay type in all cases: cell-based, human
[1] = tested on: anterior foregut endoderm (hESC-derived, ActivinA then NOG/SB); assay: qRT-PCR of SHH, NKX2.1, PAX8 in foregut endoderm monolayer cultures treated with FGF/HH modulators; details: for NKX2.1 expression / PAX8 expression / SHH expression: vs foregut control (FGF2: vs untreated endoderm controls), FGF2 50/500 ng/mL; for NKX2.1 expression / PAX8 expression: Sant-2 10 μM
Source text: Many signaling pathways are important for lung induction and development (see, e.g., Wong A P, et al., Nat Biotechnol. 2012 Aug. 26; Huang S X L, et al., Nature; 2013 Dec. 1; 1-11; Firth A L, et al., Proceedings of the National Academy of Sciences. 2014 Apr. 29; 111(17):E1723-30; Mou H, et al., Cell Stem Cell. 2012 Apr. 6; 10(4):385-97; Ghaedi M, et al., J. Clin. Invest. 2013 Nov. 1; 123(11):4950-62; Longmire T A, et al., Cell Stem Cell. 2012 Apr. 6; 10(4):398-411; Rankin S A, Zorn A M. Gene Regulatory Networks Governing Lung Specification. J Cell Biochem. 2014 Mar. 19; Morrisey E E, et al., Developmental Cell. Elsevier Inc; 2010 Jan. 19; 18(1):8-23; Min H, et al., Genes & Development. 1998 Oct. 15; 12(20):3156-61; Weaver M, et al., Development. 2000 June; 127(12):2695-704). […] 2011 Feb. 3; 470(7332):105-9; Wells J M, et al., Development. 2014 February; 141(4):752-60; Motoyama J, et al., Nat Genet. 1998 September; 20(1):54-7) and Hh signaling is important for lung mesenchyme proliferation in vivo (see, e.g., Bellusci S, et al., Development. 1997 January; 124(1):53-63). […] It has been reported that approximately 85-95% of cells are endoderm, but a portion of the remaining cells are mesodermal and this small mesodermal population is maintained in the spheroids and organoids (see, e.g., Spence J R, et al., Nature. 2011 Feb. 3; 470(7332):105-9; McCracken K W, et al., Nature; 2014 Oct. 29; 1-19; Green M D, et al., Nat Biotechnol.; 2011 Feb. 27; 1-7) (FIG. 4). Therefore, based on mouse and hPSC studies, it was hypothesized that FGF and/or HH signaling would induce an NKX2.1+ lung lineage in anterior foregut endoderm. To test this hypothesis experiments initially focused on adherent endoderm monolayer cultures to optimize induction conditions. Cultures were treated for 4 days with ActivinA followed by an additional 4 days with NOG/SB (referred to as Foregut). Controls consisted of ActivinA treatment only followed by no additional growth factors (Endoderm controls), or ActivinA followed by NOG/SB, followed by no additional factors (Foregut controls). All experimental groups were compared to both endoderm and foregut controls (FIG. 6). The ability of FGF2 to induce SHH, NKX2.1 and PAX8 was first tested by exposing foregut cultures to low and high concentrations of FGF2 (50,500 ng/mL) (FIG. 6A). […] It was also observed that dual NOG/SB inhibition in endoderm cultures induced robust NKX2.1 and PAX8 expression without adding FGF2 (FIG. 1B, 6A). Thus, it was desired to determine if NKX2.1 expression in foregut cultures was due to endogenous FGF and/or HH signaling. To test this, the FGF or HH pathway was inhibited with small molecules SU5402 (SU, 10 μm) and Sant-2 (10 μm) respectively (FIG. 6B-C). Treating foregut cultures with the FGF inhibitor SU caused a significant, robust reduction in PAX8 and a modest reduction in SHH, while NKX2.1 expression was unchanged compared to foregut control (FIG. 6B). […] To test if HH signaling was able to induce NKX2.1 in foregut cultures, the Smoothened agonist, SAG (1 μM), was added to foregut cultures. The addition of SAG induced a 6.5 fold increase of NKX2.1 expression above foregut controls (FIG. 6D).
This combination caused an additional increase in NKX2.1 expression (21 fold vs. 6.5 fold with SAG only, when compared to foregut) and a concomitant decrease in PAX8 mRNA (FIG. 6D).
(§1) After differentiation into definitive endoderm, foregut endoderm was differentiated, essentially as described (see, e.g., Green M D, et al., Nat Biotechnol. Nature Publishing Group; 2011 Feb. 27; 1-7). Briefly, cells were incubated in foregut media: Advanced DMEM/F12 plus N-2 and B27 supplement, 10 mM Hepes, lx L-Glutamine (200 mM), lx Penicillin-streptomycin (5,000 U/mL, all from Life Technologies) with 200 ng/mL Noggin (NOG, R&D Systems) and 10 μM SB431542 (SB, Stemgent) for 4 days. […]

[2] = tested on: anterior foregut endoderm (hESC-derived, ActivinA then NOG/SB); assay: Immunofluorescence of NKX2.1 and PAX8 positive cells in foregut monolayer cultures; details: compared to endoderm and foregut controls
Experimental: Importantly, immunofluorescence correlated with QRT-PCR data showing an increased number of NKX2.1+ cells with the addition of SAG only. […] SAG and SAG+SU treated cells also co-expressed FOXA2 and SOX2 confirming their endodermal origin (FIG. 2).
as §1
HLOs with P63+ cells were counted as having proximal airway-like epithelium and HLOs with SFTPC+ cells were counted as having distal airway-like epithelium. The area of proximal epithelium was determined by P63+ECAD+ staining. Area was measured using ImageJ software. Cell quantification of NKX2.1, P63, and DAPI was counted by Metamorph cell counting software. FOXJ1, SFTPC, and HOPX were counted in ImageJ using the cell counter plugin.

[3] = tested on: foregut spheroids (NOG+SB+FGF4+Ch); assay: qRT-PCR of foregut spheroids generated with addition of HH agonist SAG; details: SAG added to NOG+SB+FGF4+Ch spheres; compared to spheres without SAG
Experimental: Based on the observations that stimulating HH and inhibiting FGF signaling strongly enhances NKX2.1 expression while reducing PAX8 expression (FIG. 5), multiple conditions of HH activation and FGF inhibition to induce NKX2.1^HI/PAX8^LO foregut spheroids (NOG/SB/F/Ch) were tested (FIG. 8). […] Therefore, several conditions were also tested that stimulated HH signaling using SAG only, without FGF inhibition. […] Additionally, nuclear NKX2.1 protein expression was found in ECAD+ epithelium which co-expressed endoderm epithelial markers FOXA2 and SOX2 (FIG. 10B, C, FIG. 11). […] Thus, concomitant down-regulation of SOX2 and increased NKX2.1 observed in SAG treated foregut spheroids is consistent with early transcriptional changes that occur during lung specification in mice.
After differentiation into definitive endoderm, cells were incubated in foregut media with NOG, SB, 500 ng/mL FGF4 (R&D Systems), and 2 μM CHIR99021 (Chiron, Stemgent) for 4-6 days. After 4 days with treatment of growth factors, three-dimensional floating spheroids were present in the culture. Three-dimensional spheroids were transferred into Matrigel to support 3D growth as previously described (see, e.g., McCracken K W, et al., Nature Protocols; 2011 Nov. 10; 6(12):1920-8). Briefly, spheroids were embedded in a droplet of Matrigel (BD Bioscience #356237) in one well of a 24 well plate, and incubated at room temperature for 10 minutes. After the Matrigel solidified, foregut media with 1% Fetal bovine serum (FBS, CAT#: 16000-044, Life Technologies) or other growth factors and small molecules were overlaid and replaced every 4 days. Organoids were transferred into new Matrigel droplets every 10 to 15 days.
RNA was extracted from monolayers, spheroids, and organoids using a MagMAX-96 Total RNA Isolation Kit (Life Technologies) and MAG Max Express (Applied Biosystems). RNA quantity and quality were determined spectrophotometrically, using a Nano Drop 2000 (Thermoscientific). Reverse transcription was conducted using the SuperScript VILO kit (Invitrogen), according to manufacturer's protocol. Finally, qRT-PCR was carried out using Quantitect Sybr Green MasterMix (Qiagen) on a Step One Plus Real-Time PCR system (Life Technologies).

[4] = tested on: NOG/SB/F/Ch/SAG treated foregut spheroids; assay: Expansion of foregut spheroids in Matrigel into lung organoids; details: FGF10 500 ng/mL, Matrigel 3D culture
Source text: NOG/SB/F/Ch/SAG treated foregut spheroids were embedded in Matrigel to provide a 3D growth environment. Spheroids maintained in basal media supplemented with 1% FBS lost ECAD+ epithelial structures and were mainly comprised of mesenchyme within 20 days of 3D culture (FIG. 9D,E). FGF10 is essential for branching morphogenesis and maintenance of lung progenitor cells during development as well as tissue homeostasis in the adult lung (see, e.g., Motoyama J, et al., Nat Genet. 1998 September; 20(1):54-7; Li Y, et al., Developmental Biology. 2004 Jun. 1; 270(1):214-31; Bellusci S, et al., Development. 1997 January; 124(1):53-63; Min H, et al., Genes & Development. 1998 Oct. 15; 12(20):3156-61; Weaver M, et al., Development. 2000 June; 127(12):2695-704; Agha El E, et al., Development. 2013 Dec. 18; Volckaert T, et al., Development 2013 September; 140(18):3731-42). It was observed that the addition of FGF10 (500 ng/mL) allowed spheroids to expand and be passaged for over 100 days. FGF10 promoted the maintenance of ECAD+ epithelial structures with less mesenchymal contributions compared to both basal and FGF inhibitor conditions (FIG. 10D). […] SOX2+ domains and SOX9+ domains were distributed throughout the entire HLO as determined by whole mount immunofluorescence and confocal Z-sections (FIG. 14). […]

Question: How did the NKX2.1 expression ([1]; SU 10 μM) turn out when Sant-2 was run?
Answer: Its NKX2.1 expression is “significant reduction”.

Question: Which “increase of NKX2.1 expression” value ([1]; foregut endoderm treated 8 days, SAG 1 μM, SU 10 μM, compared to untreated foregut controls) does the source give for `CNC1CCC(N(Cc2cccc(-c3ccncc3)c2)C(=O)c2sc3ccccc3c2Cl)CC1` (stereo not shown) [SAG] here?
Answer: Its value is 6.5 fold.

Question: And the PAX8 expression ([1]; SU 10 μM, SAG 1 μM)?
Answer: Its PAX8 expression is “unchanged”.

Question: What about the “NKX2.1+ cells (immunohistochemistry)” value [2] of the same molecule?
Answer: Its value is “more NKX2.1+ cells”.

Question: And the CDX2 transcript [3]?
Answer: Its CDX2 transcript is “reduction”.

Question: And the HHEX transcript [3]?
Answer: Its HHEX transcript is “not significantly different”.

Question: What about the NKX2.1 transcript [3] of the same molecule?
Answer: Its NKX2.1 transcript is “significant increase”.

Question: And the PAX8 transcript [3]?
Answer: Its PAX8 transcript is “not significantly different”.

Question: What about the PDX1 transcript [3] of the same molecule?
Answer: Its PDX1 transcript is “not significantly different”.

Question: And the SOX2 transcript [3]?
Answer: Its SOX2 transcript is “reduction”.

Question: With `Cc1c[nH]c(/C=C2\C(=O)Nc3ccccc32)c1CCC(=O)O` [SU5402] as the molecule, how does the GLI1 expression ([1]; compared to foregut controls) read?
Answer: The GLI1 expression was “not significantly different”.

Question: What about the PTCH1 expression ([1]; compared to foregut controls) of the same molecule?
Answer: The PTCH1 expression was “not significantly different”.

Question: What about the SHH expression ([1]; SU 10 μM) of the same molecule?
Answer: The SHH expression was “significant reduction”.

Question: What about the NKX2.1 expression ([1]; SU 10 μM) of the same molecule?
Answer: Its NKX2.1 expression is “not significantly different”.

Question: What about the PAX8 expression ([1]; SU 10 μM, SAG 1 μM) of the same molecule?
Answer: The PAX8 expression was “significant reduction”.

Question: Which results are given for “FGF2: fibroblast growth factor 2 (R&D systems)”?
Answer: SHH expression ([1]; SU 10 μM): dose dependent increase; NKX2.1 expression ([1]; SU 10 μM): modest increase; PAX8 expression ([1]; SU 10 μM, SAG 1 μM): dose dependent increase

B1: FGF10: protein that belongs to the fibroblast growth factor (FGF) family (protein, UniProt O15520 38-208, looked up)
Fibroblast growth factor 10: QALGQDMVSPEATNSSSSSFSSPSSAGRHVRSYNHLQGDVRWRKLFSFTKYFLKIEKNGKVSGTKKENCPYSILEITSVEIGVVAVKAINSNYYLAMNKKGKLYGSKEFNNDCKLKERIEENGYNTYASFNWQHNGRQMYVALNGKGAPRRGQKTRRKNTSAHFLPMVVHS
Question: With B1 as the molecule, how does the “time spheroids could expand and be passaged” value [4] read?
Answer: The value was “over 100 days”.
